Results: patent US9518060B2, “Substituted pyrrolo[3,4-c]pyrazoles as PKC kinase inhibitors” (PFIZER INC., priority 2007, dated 2016)
pKi: −log10 of the molar value. Where a name gives a salt, the structure may show the parent alone.

Target: Protein Kinase C beta 2 (PKCβII) (Homo sapiens (Human), UniProt P05771)
Assay: PKCβII coupled spectrophotometric kinase assay (PK/LDH, NADH absorbance at 340 nm)
Format: biochemical
Details: apparent Ki, ATP competitive inhibition model (Morrison equation); 0.1 mM ATP, 5 nM PKC, 30° C.; read-out: Ki app
Procedure: Protein Kinase C beta 2 (PKCβII) catalyzes the production of ADP from ATP that accompanies the phosphoryl transfer to the PKC Pseudosubstrate peptide (A→S, RFARKGSLRQKNV). This transfer is coupled to the oxidation of β-NADH through the activities of Pyruvate Kinase (PK) and Lactate Dehydrogenase (LDH). β-NADH conversion to NAD+ is monitored by the decrease in absorbance at 340 nm (e=6.22 cm^−1 mM^−1) using a Molecular Devices SPECTRA max PLUS spectrophotometer.
A typical assay was carried out on a 96-well, clear microtiter plate in a Molecular Devices spectrophotometer for 20 minutes at 30° C. in 0.1 mL of assay buffer containing 50 mM HEPES, pH 7.4, 5 nM PKC, 23 units of pyruvate kinase, 33 units of lactate dehydrogenase, 0.15 mM peptide, 0.1 mM ATP, 1 mM DTT, 4 mM PEP, 8 mM MgCl2, 0.3 mM NADH, 60 mM CaCl2, 10 mg/mL PS, 50 ng/mL PMA, 7.5% DMSO and from about 10,000 nM to 0.169 nM compound inhibitor. Stock solutions of 3-sn-phosphatidyl-L-serine (PS) and phorbol-12-myristate-13-acetate (PMA) were sonicated for 30 seconds just prior to addition to assay buffer and assays were initiated by the addition of 100 μM ATP.
Steady-state kinetic parameters for the bi-bi kinase reaction were determined at saturating phospho-acceptor peptide substrate concentration (0.15 mM) by fitting initial velocity data to the Michaelis-Menten equation, v=Vmax[S]/(KM+[S]) where v is the measured initial velocity, Vmax is the maximal enzyme velocity, [S] is the ATP substrate concentration, and KM is the Michealis constant for ATP. Enzyme turnover values (kcat) were calculated according to […], where [E] is the total enzyme concentration. Enzyme inhibition constants (apparent Ki values) were determined by fitting initial velocities at variable inhibitor concentrations to a model for ATP competitive inhibition based on the Morrison equation). Morrison, J. F., Biochim. Biophys Acta 185: 269-286 (1969).

Protein Kinase C beta 2 (PKCβII), sequence (P05771 other isoform, or with tags, fused parts or gaps): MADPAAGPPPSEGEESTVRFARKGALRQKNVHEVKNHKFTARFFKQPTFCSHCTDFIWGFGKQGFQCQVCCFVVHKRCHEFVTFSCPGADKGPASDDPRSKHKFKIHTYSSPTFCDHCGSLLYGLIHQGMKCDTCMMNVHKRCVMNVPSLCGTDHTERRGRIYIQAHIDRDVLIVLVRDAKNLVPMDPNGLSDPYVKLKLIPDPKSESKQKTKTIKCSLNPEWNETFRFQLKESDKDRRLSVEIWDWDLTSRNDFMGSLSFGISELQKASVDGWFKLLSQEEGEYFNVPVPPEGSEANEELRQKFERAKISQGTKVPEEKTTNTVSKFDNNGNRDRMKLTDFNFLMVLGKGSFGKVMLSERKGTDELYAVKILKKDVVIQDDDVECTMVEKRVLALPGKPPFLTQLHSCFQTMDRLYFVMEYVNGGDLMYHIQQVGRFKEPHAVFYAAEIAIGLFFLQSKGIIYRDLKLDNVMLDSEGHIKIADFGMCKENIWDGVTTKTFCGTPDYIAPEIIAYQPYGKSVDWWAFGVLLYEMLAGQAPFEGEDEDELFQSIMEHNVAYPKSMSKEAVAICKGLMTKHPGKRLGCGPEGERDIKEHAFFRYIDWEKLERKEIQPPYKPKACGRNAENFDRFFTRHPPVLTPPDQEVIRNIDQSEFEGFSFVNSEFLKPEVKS

Row | Structure (SMILES) | pKi
1 | CCNc1ncc(F)c(Nc2n[nH]c3c2CN(C(=O)N2C[C@@H](C)N(C4CCOCC4)C[C@@H]2C)C3(C)C)n1 [Example A12, N^4-(5-{[(2S,5R)-2,5-dimethyl-4-(tetrahydro-2H-pyran-4-yl)piperazin-1-yl]carbonyl}-6,6-dimethyl-1,4,5,6-tetrahydropyrrolo[3,4-c]pyrazol-3-yl)-N^2-ethyl-5-fluoropyrimidine-2,4-diamine] | > 8.00
2 | CCNc1ncc(F)c(Nc2n[nH]c3c2CN(C(=O)N2C[C@@H]4CCCN4C[C@@H]2C)C3(C)C)n1 [Example B2, N^4-(6,6-dimethyl-5-{[(3S,8aS)-3-methylhexahydropyrrolo[1,2-a]pyrazin-2(1H)-yl]carbonyl}-1,4,5,6-tetrahydropyrrolo[3,4-c]pyrazol-3-yl)-N^2-ethyl-5-fluoropyrimidine-2,4-diamine] | 7.61
3 | C[C@@H]1CN(C(=O)N2Cc3c(Nc4ccnc(C#N)n4)n[nH]c3C2(C)C)[C@@H](C)CN1C [Example B6, 4-[(6,6-dimethyl-5-{[(2S,5R)-2,4,5-trimethylpiperazin-1-yl]carbonyl}-1,4,5,6-tetrahydropyrrolo[3,4-c]pyrazol-3-yl)amino]pyrimidine-2-carbonitrile] | 8.61
4 | CCNc1ncc(F)c(Nc2n[nH]c3c2CN(C(=O)N2C[C@@H](C)N(CCOC)C[C@@H]2C)C3(C)C)n1 [Example B4, N^2-ethyl-5-fluoro-N4-(5-{[(2S,5R)-4-(2-methoxyethyl)-2,5-dimethylpiperazin-1-yl]carbonyl}-6,6-dimethyl-1,4,5,6-tetrahydropyrrolo[3,4-c]pyrazol-3-yl)pyrimidine-2,4-diamine] | 7.87
5 | CCNc1nccc(Nc2n[nH]c3c2CN(C(=O)N2CC(C)(C)N(C)C[C@@H]2C)C3(C)C)n1 [Example A8, N^4-(6,6-dimethyl-5-{[(2S)-2,4,5,5-tetramethylpiperazin-1-yl]carbonyl}-1,4,5,6-tetrahydropyrrolo[3,4-c]pyrazol-3-yl)-N^2-ethylpyrimidine-2,4-diamine] | 8.47
6 | CC(C)CNc1ncc(F)c(Nc2n[nH]c3c2CN(C(=O)N2CC(C)(C)N(C)C[C@@H]2C)C3(C)C)n1 [Example A4, N^4-(6,6-dimethyl-5-{[(2S)-2,4,5,5-tetramethylpiperazin-1-yl]carbonyl}-1,4,5,6-, tetrahydropyrrolo[3,4-c]pyrazol-3-yl)-5-fluoro-N^2-isobutylpyrimidine-2,4-diamine acetate salt] | 7.42
7 | C[C@H]1CN(C)C(C)(C)CN1C(=O)N1Cc2c(Nc3ccnc(N(C)C)n3)n[nH]c2C1(C)C [Example A9, N^4-(6,6-dimethyl-5-{[(2S)-2,4,5,5-tetramethylpiperazin-1-yl]carbonyl}-1,4,5,6-tetrahydropyrrolo[3,4-c]pyrazol-3-yl)-N^2,N^2-dimethylpyrimidine-2,4-diamine] | 8.01

Results, then the molecule that gave them:

Row | pKi | Structure (SMILES)
8 | 8.68 | CCOc1ncc(F)c(Nc2n[nH]c3c2CN(C(=O)N2C[C@@H](C)N(CC)C[C@@H]2C)C3(C)C)n1 [Example K2, N-(2-ethoxy-5-fluoropyrimidin-4-yl)-6,6-dimethyl-5-{[4-ethyl(2S,5R)-2,5-dimethylpiperazin-1-yl]carbonyl}-1,4,5,6-tetrahydropyrrolo[3,4-c]pyrazol-3-amine]
9 | 7.60 | CCOc1ncc(F)c(Nc2n[nH]c3c2CN(C(=O)N2C[C@@H](C)N(CCC(F)(F)F)C[C@@H]2C)C3(C)C)n1 [Example K18, 5-{[(2S,5R)-2,5-dimethyl-4-(3,3,3-trifluoropropyl)piperazin-1-yl]carbonyl}-N-(2-ethoxy-5-fluoropyrimidin-4-yl)-6,6-dimethyl-1,4,5,6-tetrahydropyrrolo[3,4-c]pyrazol-3-amine]
10 | 7.82 | CCOc1ncc(F)c(Nc2n[nH]c3c2CN(C(=O)N2C[C@@H](C)N(CC4(O)CCOCC4)C[C@@H]2C)C3(C)C)n1 [Example K22, 4-[((2R,5S)-4-{[3-[(2-ethoxy-5-fluoropyrimidin-4-yl)amino]-6,6-dimethyl-4,6-dihydropyrrolo[3,4-c]pyrazol-5(1H)-yl]carbonyl}-2,5-dimethylpiperazin-1-yl)methyl]tetrahydro-2H-pyran-4-ol]
11 | 7.95 | CCOc1ncc(F)c(Nc2n[nH]c3c2CN(C(=O)N2C[C@]4(C)CCCN4C[C@@H]2C)C3(C)C)n1 [Example K15, 5-{[(3S,8aS)-3,8a-dimethylhexahydropyrrolo[1,2-a]pyrazin-2(1H)-yl]carbonyl}-N-(2-ethoxy-5-fluoropyrimidin-4-yl)-6,6-dimethyl-1,4,5,6-tetrahydropyrrolo[3,4-c]pyrazol-3-amine]
12 | > 8.00 | C[C@@H]1CN(C(=O)N2Cc3c(Nc4nccc(C(F)(F)F)n4)n[nH]c3C2(C)C)[C@@H](C)CN1C1CCOCC1 [Example J13]
13 | 6.83 | Cc1ncc(F)c(Nc2n[nH]c3c2CN(C(=O)N2C[C@H](C)N(C)C[C@@H]2C)C3(C)C)n1 [AA4, 2(S),5(S)-{[dimethyl-4-methylpiperazin-1-yl]carbonyl}-N-(5-fluoro-2-methylpyrimidin-4-yl)-6,6-dimethyl-1,4,5,6-tetrahydropyrrolo[3,4-c]pyrazol-3-amine]
14 | 7.14 | CCOc1ncc(F)c(Nc2n[nH]c3c2CN(C(=O)N2CCN4CCC[C@@H]4C2)C3(C)C)n1 [Example K14, [3-(2-Ethoxy-5-fluoro-pyrimidin-4yl-amino)-6,6-dimethyl-4,6-dihydro-1H-pyrrolo[3,4-c]pyrazol-5-yl]-(R)-hexahydro-pyrrolo[1,2-a]pyrazin-2-yl-methanone]
15 | 8.48 | CCOc1ncc(F)c(Nc2n[nH]c3c2CN(C(=O)N2C[C@@H](C)N(CCOC)C[C@@H]2C)C3(C)C)n1 [Example K4, N-(2-ethoxy-5-fluoropyrimidin-4-yl)-5-{[(2S,5R)-4-(2-methoxyethyl)-2,5-dimethylpiperazin-1-yl]carbonyl}-6,6-dimethyl-1,4,5,6-tetrahydropyrrolo[3,4-c]pyrazol-3-amine]
16 | 7.22 | Cc1cccc(Nc2n[nH]c3c2CN(C(=O)C2(F)CCN(C)CC2)C3(C)C)n1 [Example J2, 5-[(4-fluoro-1-methylpiperidin-4-yl)carbonyl]-6,6-dimethyl-N-(6-methylpyridin-2-yl)-1,4,5,6-tetrahydropyrrolo[3,4-c]pyrazol-3-amine]
17 | 8.77 | CN1CCC(F)(C(=O)N2Cc3c(Nc4nc(OCC(F)(F)F)ncc4F)n[nH]c3C2(C)C)CC1 [Example L4, 5-[(4-fluoro-1-methylpiperidin-4-yl)carbonyl]-N-[5-fluoro-2-(2,2,2-trifluoroethoxy)pyrimidin-4-yl]-6,6-dimethyl-1,4,5,6-tetrahydropyrrolo[3,4-c]pyrazol-3-amine]
18 | 8.58 | Cc1ccc(F)c(Nc2n[nH]c3c2CN(C(=O)N2C[C@@H](C)N(C)C[C@@H]2C)C3(C)C)n1 [Example J3, N-(3-fluoro-6-methylpyridin-2-yl)-6,6-dimethyl-5-{[(2S,5R)-2,4,5-trimethylpiperazin-1-yl]carbonyl}-1,4,5,6-tetrahydropyrrolo[3,4-c]pyrazol-3-amine]
19 | 6.95 | Cc1cccc(Nc2n[nH]c3c2CN(C(=O)N2C[C@]4(C)CCCN4C[C@@H]2C)C3(C)C)n1 [Example J7, 5-{[(3S,8aS)-3,8a-dimethylhexahydropyrrolo[1,2-a]pyrazin-2(1H)-yl]carbonyl}-6,6-dimethyl-N-(6-methylpyridin-2-yl)-1,4,5,6-tetrahydropyrrolo[3,4-c]pyrazol-3-amine]
20 | 7.72 | COc1ccnc(Nc2n[nH]c3c2CN(C(=O)N2C[C@@H](C)N(CC4CCOCC4)C[C@@H]2C)C3(C)C)n1 [Example J14, 5-{[(2S,5R)-2,5-dimethyl-4-(tetrahydro-2H-pyran-4-ylmethyl)piperazin-1-yl]carbonyl}-N-(4-methoxypyrimidin-2-yl)-6,6-dimethyl-1,4,5,6-tetrahydropyrrolo[3,4-c]pyrazol-3-amine]
21 | 7.67 | Cc1ccc(F)c(Nc2n[nH]c3c2CN(C(=O)C2(F)CCN(C)CC2)C3(C)C)n1 [Example J1, 5-[(4-fluoro-1-methylpiperidin-4-yl)carbonyl]-N-(3-fluoro-6-methylpyridin-2-yl)-6,6-dimethyl-1,4,5,6-tetrahydropyrrolo[3,4-c]pyrazol-3-amine]
22 | 7.07 | CC[C@H]1CN(C(=O)N2Cc3c(Nc4nc(C)ncc4F)n[nH]c3C2(C)C)CCN1C [Example H4, 5-{[(3S)-3-ethyl-4-methylpiperazin-1-yl]carbonyl}-N-(5-fluoro-2-methylpyrimidin-4-yl)-6,6-dimethyl-1,4,5,6-tetrahydropyrrolo[3,4-c]pyrazol-3-amine]
23 | 8.06 | Cc1ccc(F)c(Nc2n[nH]c3c2CN(C(=O)N2C[C@]4(C)CCCN4C[C@@H]2C)C3(C)C)n1 [Example J4, 5-{[(3S,8aS)-3,8a-dimethylhexahydropyrrolo[1,2-a]pyrazin-2(1H)-yl]carbonyl}-N-(3-fluoro-6-methylpyridin-2-yl)-6,6-dimethyl-1,4,5,6-tetrahydropyrrolo[3,4-c]pyrazol-3-amine]
